{"source": "patent US5262417A", "about": "“Antibacterial quinolone compounds” (The Upjohn Company, priority 1991, dated 1993)", "assay_in_all_cases": "Dip disk (disk-diffusion) assay, disks loaded with 0.05 ml", "format_in_all_cases": "cell-based", "key": {"[1]": {"tested_on": "Escherichia coli UC 51 (EC)", "conditions": "Escherichia coli, UC51; 0.1 mcg/ml, 0.05 ml per disk; read-out: Growth Inhibition zone, EC", "description": "(§1) The effectiveness of the subject compounds on bacteria were obtained by performing a dip disk assay. The antibacterial activity of the compounds was determined by the disk-diffusion method. Paper disks (12.7 mm) were loaded with 0.05 ml of drug solution prepared at a concentration of 0.1 mcg/ml; the disks were allowed to air dry. They were then applied to the surface of microorganism-seeded agar assay trays, which contained the bacterial strain Pseudomonas aeruginosa UC 95 (PA), Escherichia coli UC 51 (EC), Klebsiella pneumoniae UC 57 (KP), or Staphylococcus aureus UC 80 (SA). The assay trays were incubated overnight under aerobic condition to allow for the growth of the organisms. Zones of growth inhibition due to the action of the antibiotic were then measured to the nearest millimeter.\n(§2) The effectiveness of additional compounds 5-9, (5-7 are Formula IAa compounds and 8 and 9 are Formula IAb compounds) on bacteria were obtained by performing a dip disk assay as described above. The antibacterial activity of the compounds was determined by the disk-diffusion method where the disks were loaded with 0.05 ml of drug solution prepared at a concentration of 1.0 mcg/ml; the disks were allowed to air dry."}, "[2]": {"tested_on": "Pseudomonas aeruginosa UC 95 (PA)", "conditions": "Pseudomonas aeruginosa, UC95; 0.1 mcg/ml, 0.05 ml per disk; read-out: Growth Inhibition zone, PA", "description": "as §1, §2"}, "[3]": {"tested_on": "Staphylococcus aureus UC 80 (SA)", "conditions": "Staphylococcus aureus, UC80, read-out: Growth Inhibition zone, SA", "description": "as §1, §2"}}, "data": [{"compound": "O=C(O)c1cn(C2CC2)c2cc(N3CCNCC3)c(F)cc2c1=O", "note": "[Ciprofloxacin, reference compound]", "values": [{"measurement": "zone of inhibition at 0.1 µg/mL", "setting": "[1]", "result": 29, "unit": "mm"}, {"measurement": "zone of inhibition at 0.1 µg/mL", "setting": "[2]", "result": 38, "unit": "mm"}, {"measurement": "zone of inhibition at 0.1 µg/mL", "setting": "[3]", "result": 27, "unit": "mm"}]}]}
